Laboratory results as given in article PMC5177663 (Frontiers in Pharmacology, 2016).

Key:
[1] = tested on: acetylcholine extracellular levels; experiment: intracerebral microdialysis, acetylcholine in mPFC and ventral hippocampus; type: in vivo, Wistar (Han) rats; details: at 30 min
Procedure: The locomotor activity of the rats was recorded simultaneously during the sampling as a control method to assess a possible contribution of the handling stress and drug administration to microdialysis data.
Male Wistar (Han) rats, weighting about 265 g, were used for the experiment. At their arrival at facility, rats were housed in humidity and temperature controlled room on a 12h light/dark cycle (light on at 6:00 h) with water and food available ad libitum. Rats were anaesthetized with isoflurane and stereotaxically implanted with two guide cannula: one into the ventral hippocampus (vHPC: Interaural + 3.7 mm, Lateral + 4.8 mm, Ventral -3.8 mm providing the final -8.0 mm for the tip of the microdialysis probe) and the second into the medial prefrontal cortex (mPFC: Interaural + 12.2 mm, Lateral - 0.5 mm, Ventral -1.6 mm providing the final -5.6 mm for the tip of the microdialysis probe). After a recovery of 5 days, a microdialysis probe was inserted into the each respective guide cannula of awake rat. The probes were perfused at a constant flow-rate of 1 µl/min with sterile artificial CSF solution in the absence of an AChE inhibitor (148 mM NaCl, 4 mM KCl, 0.8 mM MgCl2, 1.4 CaCl2, 1.2 mM Na2HPO4, 0.3 mM NaH2PO4, pH 7.2). Following 120-min stabilization period, the samples were collected every 30 minutes. The first 3 samples (-90 to 0 min) were taken for determination of basal extracellular levels of ACh. […] After finalizing the experiment, the animals were sacrificed by an overdose of isoflurane and dislocation of the neck.
The levels of ACh in the microdialysates were determined by high-performance liquid chromatography (HPLC) linked to a postcolumn immobilized enzyme reactor followed by electrochemical detection. Briefly, the HPLC system (HTEC-500, Eicom Corp.) included a pulse-free microflow pump, a degasser and an amperometric detector equipped with a platinum electrode. The potential of the working electrode vs. Ag/AgCl ref. electrode was set to +0.45 V vs. an Ag/AgCl reference elctrode. Samples were injected by use of a CMA/200 Refrigerated Microsampler (CMA/Microdialysis). The chromatograms were recorded and integrated by use of a computerized data acquisition system (DataApex, Prague, Czech Republic). ACh was separated on a 150 x 2.0 I.D. mm narrow-bore column, packed with C18 polymer gel, 4 μm particle size. The enzyme reactor AC-ENZYMPAK II (Eicom Corp.) was used. The mobile phase was a 50 mM potassium hydrogen carbonate buffer containing 3.7 mM sodium 1-octanesulfonate, 0.13 mM EDTA-2Na, final pH 7.2. […] Determination of ACh levels in the groups of rats treated with drugs and vehicle was performed in blind conditions.

middle-aged mice = experiment: contextual serial discrimination (CSD) task, contextual memory; type: in vivo, C57/Bl6 mice; details: for effect on SCM scores as compared to vehicle: Experiment 1, middle-aged mice, 9 days oral; for strength of contextual memory (SCM) score (% correct responses - % interference responses): Experiment 2, middle-aged mice, NS vs vehicle
From the text: The memory task and apparatus has been fully described previously ([Chauveau et al., 2009]). The contextual serial discrimination (CSD) task is based on two successive discriminations in a four-hole board which can be retrieved with the help of specific temporal and contextual cues associated with each of them.
The acquisition phase took place in room A where animals learned two consecutive spatial discriminations (D1 and D2; Figure 1A) which differed by the color and texture of the floor and were separated by a 2-min delay interval. For both D1 and D2, 10 20-mg food pellets were available during the 6-min exploration sessions; for D2 specifically, the baited hole was consistently located in the opposite symmetrical hole. Environmental cues made of colored paper sheets were positioned at 1.00 m above the board. At the end of the acquisition phase, mice returned in the animal’s room for 24 h. Animals retained for the test phase in the present study for both Experiments 1 and 2 have eaten at least 7–8 pellets/10 during both acquisitions.
Mice were replaced on the D1 floor in the board without any pellet in the apparatus and were allowed to freely explore for 6 min during which the number of head-dips in each hole was counted. This allowed measures of the % of “correct responses” (head-dips into the hole previously baited on the same floor-context), the % of “interference responses” (head-dips into the hole previously baited at D2, on the other floor-context) (Figure 1B) and of the “strength” of “contextual memory” score (SCM) (% correct responses - % interference responses). Thus, since correct responses are based on the use of the internal context (color of the floor) and interferent responses are based on the use of spatial allocentric cues previously associated with the other floor, thus the trend of SCM score toward a positive difference represents the gain of internal contextual memory, at the expense of allocentric spatial one.
The two last administrations were delivered 1 h before the acquisition and test phases.
(§1) Independent groups of mice (N = 10 per group) were used. An additional group composed by young vehicle mice (4–5 months young-vehicles, N = 10) was added for determination of the aging effect on both memory and phosphorylated CREB immunoreactivities, as compared to middle-aged Vehicles. For the immunohistochemical study, animals submitted to D1 memory testing were compared to “naïve” mice isolated in the colony room (with N = 5 per group; Naïve condition) and that underwent the food deprivation procedure and drug treatments as behaving animals (Test condition).

[2] = tested on: phosphorylated CREB (pCREB); experiment: pCREB immunohistochemistry after behavioral testing; type: in vivo, C57/Bl6 mice; details: test condition
Procedure: as §1
Thirty minutes after completion of the test session, mice were deeply anesthetized (Avertin, 10 mL/kg intraperitoneally i.p.), and perfused transcardially with an ice-cold solution of 4% paraformaldehyde in phosphate buffer (0.1 M, pH 7.4). After perfusion, brains were removed and post-fixed overnight in the same fixative at 4°C. Brains were then put in a sucrose solution (30% in Tris Buffer 0.1 M, pH 7.4) during 24 h. They were then frozen and cut in […] coronal free-floating sections with a freezing microtome (Leica) to proceed to immunochemistry.
Total CREB (tCREB) and phosphorylated CREB (pCREB) immunostainings were performed as described in full previously ([Vandesquille et al., 2013]; [Dominguez et al., 2014], [2016]). Countings were made in the following brain regions according to [Paxinos and Franklin (2001)] atlas: the CA1 of the dorsal (dCA1) and ventral (vCA1) hippocampus, the prelimbic cortex (PL), the dorsal striatum (St), the basolateral amygdala nucleus (BLA) and the medial septum nucleus (MS). Digital images were captured at 10X magnification using an Olympus (BX50) and an imaging analysis system (ImageJ®). At least six serial sections for each brain region were analyzed using a computerized image analysis system (Visiolab 2000®, Biocom, and V4.50). Quantification was expressed as mean number of positive nuclei per mm^2.

mice = experiment: primary observation (IRWIN) test; type: in vivo; details: pharmacological doses, alone or in combination, data not shown
H3 receptors = tested on: H3 receptors; design: method as in Panayi et al., 2014; details: rats, mice, monkeys memory paradigms; ref Panayi et al., 2014; cited from earlier work
in vivo = experiment: in vivo
Procedure: The sampling times are 30 min, 1, 2, 4, and 6 h. In each mouse, two time points of blood sampling were performed. Plasma was extracted from the blood sample by centrifugation (+4°C, 3000 g, 10 min) and stored at -80°C. Then, plasma samples were sent in dry ice to MDS (MDS Pharma Services, Switzerland) for the pharmacokinetic analysis.

[3] = middle-aged mice, Donepezil 0.3 mg/kg (ANOVA factor)

COc1cc2c(cc1OC)C(=O)C(CC1CCN(Cc3ccccc3)CC1)C2 (centres unmarked) [Donepezil, reference compound]
maximal increase of ACh levels ([1]; rat mPFC, Donepezil 0.1 mg/kg i.p.): 175 % of predrug values | maximal increase of ACh levels ([1]; rat mPFC, Donepezil 0.3 mg/kg i.p.): 216 % of predrug values | maximal increase of ACh levels ([1]; rat vHPC, Donepezil 0.1 mg/kg i.p.): 180 % of predrug values | maximal increase of ACh levels ([1]; rat vHPC, Donepezil 0.3 mg/kg i.p.): 207 % of predrug values | effect on SCM scores as compared to vehicle (middle-aged mice; Donepezil alone at all doses (0.1 and 0.3 mg/kg)): did not show significant effect | strength of contextual memory (SCM) score (% correct responses - % interference responses) (middle-aged mice; Donepezil 0.3 mg/kg alone): +7.48 ± 3.60 | increase of pCREB expression in the MS ([2]; Donepezil alone (0.3 mg/kg) as compared to vehicle): +174.3% | effect on pCREB immunopositive cells in the MS [2, 3]: significant increase | effect on pCREB immunopositive cells in the dCA1 [2, 3]: significant increase

NC(=O)c1ccc(OCCCN2CC3CCCC3C2)cc1 (centres unmarked) [S 38093]
observable clinical signs (mice): did not induce any observable clinical signs | mean pharmacological dose with procognitive properties (H3 receptors): 0.3 mg/kg | maximal increase of ACh levels ([1]; rat mPFC, S 38093 3 mg/kg i.p., n.s.): 158 % of predrug values | maximal increase of ACh levels ([1]; rat mPFC, S 38093 10 mg/kg i.p.): 234 % of predrug values | maximal increase of ACh levels ([1]; rat vHPC, S 38093 3 mg/kg i.p.): 153 % of predrug values | maximal increase of ACh levels ([1]; rat vHPC, S 38093 10 mg/kg i.p.): 184 % of predrug values | effect on SCM scores as compared to vehicle (middle-aged mice; S 38093 0.1 mg/kg alone): did not show significant effect | effect on SCM scores as compared to vehicle (middle-aged mice; S 38093 1.0 mg/kg alone): did not show significant effect | strength of contextual memory (SCM) score (% correct responses - % interference responses) (middle-aged mice; S 38093 0.1 mg/kg alone): -14.3 ± 5.76 | strength of contextual memory (SCM) score (% correct responses - % interference responses) (middle-aged mice; S 38093 0.3 mg/kg alone): +5.19 ± 6.68 | AUC (in vivo; C57/Bl6, mouse, po, 0.1 mg/kg): 9.56 ng·h/mL | Cmax (in vivo; C57/Bl6, mouse, po, 0.1 mg/kg): 3.04 ng/mL | Tl/2 (in vivo; C57/Bl6, mouse, po, 1 mg/kg): 2.37 h | AUC (in vivo; C57/Bl6, mouse, po, 1 mg/kg): 92.4 ng·h/mL | Cmax (in vivo; C57/Bl6, mouse, po, 1 mg/kg): 55.6 ng/mL | plasma exposure when administered as a combination (in vivo; mouse): no increase | effect on pCREB immunopositive cells in the dCA1 and the MS ([2]; middle-aged mice, S 38093 at both doses (0.1 and 0.3 mg/kg)): no significant effect
